Measurements from patent US20040115666A1, “Method for identifying compounds modulating reverse cholesterol transport” (priority 2001, published 2004).

Columns and labels:
[1] = system: apo A-I expression in HepG2 cells; experiment: apo A-I mRNA expression in HepG2 cells (Northern blot); type: cell-based, human
Method: HepG2 cells were grown in DMEM medium supplemented with 10% fetal calf serum, penicillin/streptomycin, sodium pyruvate and nonessential amino acids and incubated at 37° C in a humidified 5% CO2/95% air atmosphere. […] Total RNA was extracted as previously described (Chomczynski et al., Anal. Biochem., 1987, 162 (1): 156-9) and quantified by Northern Blot hybridization (Peters, J. Biol. Chem., 1997, 272 (43): 27307-12) using human apo A-I and 28S as probes (Peters, J. Biol. Chem., 1997, 272 (43): 27307-12).
HepG2 cells were grown in DMEM medium supplemented with 10% fetal calf serum, penicillin/streptomycin, sodium pyruvate and nonessential amino acids and incubated at 37° C. in a humidified 5% CO2/95% air atmosphere. Total RNA was extracted as previously described (Chomczynski et al., Anal. Biochem., 1987, 162 (1): 156-9) and quantified by Northern Blot hybridization (Peters, J. Biol. Chem., 1997, 272 (43): 27307-12) using human apo A-I and 28S as probes (Peters, J. Biol. Chem., 1997, 272 (43): 27307-12).
(§1) HepG2 were cotransfected as described in example 5. Cellular mRNA was obtained as described above in example 2.

human apo A-I promoter = experiment: luciferase reporter under human apo A-I promoter fragments in HepG2 cells overexpressing hFXR; type: cell-based
Method: HepG2 cells were cotransfected by lipofection with 300 ng of pCDNA3-hFXR vector for FXR expression, 300 ng of pSG5-mRXRα vector and 1 μg of the indicated reporter vectors enabling expression of the luciferase reporter gene under the control of fragments −254/+91, −192/+91 and −40/+91 of the apo A-I promoter. […] Total DNA was adjusted to 2 μg using plasmid pBKS+. After a 3 hour transfection, cells were incubated in the culture medium with bile acids at the indicated concentrations for 36 hours.
HepG2 cells were transfected by lipofection with 300 ng of pCDNA3-hFXR vector for expression of hFXR and 1 μg of the indicated reporter vectors allowing expression of a luciferase reporter gene under the control wild type or mutated fragment −254/+91 of the human apo A-I gene promoter, under the control of the herpes simplex virus thymidine kinase promoter or under the control of three copies of site A or site C of the human apo A-I gene cloned upstream of the herpes simplex virus thymidine kinase promoter. […] The construct containing fragment −254/+91 of the apo A-I promoter in which site A is mutated was obtained by directed mutagenesis of site A, in the wild type construct, using the Quick Change Site directed mutagenesis kit (Stratagene, La Jolla, Calif., USA), oligonucleotide 5′-[…]-3′ (SEQ ID NO: 4) and the complementary oligonucleotide. The construct containing fragment −254/+91 of the apo A-I promoter in which site C is mutated was obtained by directed mutagenesis of site C, in the wild type construct, using the Quick Change Site directed mutagenesis kit (Stratagene, La Jolla, Calif., USA), oligonucleotide 5′-[…]-3′ (SEQ ID NO: 3) and the complementary oligonucleotide. The construct containing fragment −254/+91 of the apo A-I promoter in which sites A and C are mutated was obtained by directed mutagenesis of site A, in the Cmut construct, using the Quick Change Site directed mutagenesis kit (Stratagene, La Jolla, Calif., USA), oligonucleotide 5′-[…]-3′ (SEQ ID NO: 4) and the complementary oligonucleotide. The construct denoted TkpGL3 containing the herpes simplex virus thymidine kinase promoter cloned upstream of a luciferase reporter gene has been previously described (Raspé et al., J. Biol. Chem., 2001, 276 (4): 2865-2871). The C3TK construct containing three copies of site C of the human apo A-I promoter cloned upstream of the herpes simplex virus thymidine kinase promoter and the luciferase reporter gene was obtained by oriented cloning of three copies of the double-stranded oligonucleotide corresponding to the wild type site C sequence (SEQ ID NO: 1) into the SmaI site of vector TkpGL3. The A3TK construct containing three copies of site A of the human apo A-I promoter cloned upstream of the herpes simplex virus thymidine kinase promoter and the luciferase reporter gene was obtained by oriented cloning of three copies of the double-stranded oligonucleotide corresponding to the wild type site A sequence (SEQ ID NO: 2) into the SmaI site of vector TkpGL3. Total DNA was adjusted to 2 μg using plasmid pBKS+. After a 3 hour transfection, cells were incubated in the culture medium with the bile acids at the indicated concentrations for 36 hours.
as §1

[2] = system: site C of the human apo A-I promoter; experiment: luciferase reporter C3TK (three copies of site C upstream of TK promoter) in HepG2 cells overexpressing hFXR; type: cell-based
Method: (§2) HepG2 cells were transfected by lipofection with 300 ng of pCDNA3-hFXR vector for expression of hFXR and 1 μg of the indicated reporter vectors allowing expression of a luciferase reporter gene under the control wild type or mutated fragment −254/+91 of the human apo A-I gene promoter, under the control of the herpes simplex virus thymidine kinase promoter or under the control of three copies of site A or site C of the human apo A-I gene cloned upstream of the herpes simplex virus thymidine kinase promoter. […] The construct containing fragment −254/+91 of the apo A-I promoter in which site A is mutated was obtained by directed mutagenesis of site A, in the wild type construct, using the Quick Change Site directed mutagenesis kit (Stratagene, La Jolla, Calif., USA), oligonucleotide 5′-[…]-3′ (SEQ ID NO: 4) and the complementary oligonucleotide. The construct containing fragment −254/+91 of the apo A-I promoter in which site C is mutated was obtained by directed mutagenesis of site C, in the wild type construct, using the Quick Change Site directed mutagenesis kit (Stratagene, La Jolla, Calif., USA), oligonucleotide 5′-[…]-3′ (SEQ ID NO: 3) and the complementary oligonucleotide. […]

[3] = system: site A of the human apo A-I promoter; experiment: luciferase reporter A3TK (three copies of site A upstream of TK promoter) in HepG2 cells overexpressing hFXR; type: cell-based
Method: as §2

[4] = system: herpes simplex virus thymidine kinase promoter; experiment: luciferase reporter TkpGL3 (TK promoter only) in HepG2 cells overexpressing hFXR; type: cell-based, human; details: overexpression of hFXR, CDCA
Method: as §2

[5] = system: mice transgenic for the human apo A-I gene; details: diet rich in TCA 0.5% m/m, one week
Source text: Effect of TCA on Plasma Concentrations of Cholesterol and Apo A-I and on Hepatic Expression of apo A-I in Mice Transgenic for the Human apo A-I Gene (FIG. 1)
Example 1 illustrates the effect of a diet rich in taurocholate on serum cholesterol and human apo A-I levels and on lipid profile and hepatic expression of human apo A-I in transgenic mice expressing the apo A-I gene in a C57BL genetic background.
Ten transgenic mice expressing the apo A-I gene in a C57BL genetic background (IFFA-CREDO, L'Arbresle, France) were genotyped by PCR and divided into two groups of five animals. The first group received a normal diet for one week while the second was given a diet rich in TCA (taurocholic acid, 0.5% m/m). Blood was collected after a 12 hour fast by retroorbital puncture under barbital anesthesia. Serum samples were collected and stored at −20° C. pending analysis. After one week of dietary treatment, animals were sacrificed and liver specimens were collected and frozen for analysis. Human apo A-I levels in serum were measured before and after the diet as previously described (Peters, J. Biol. Chem., 1997, 272 (43): 27307-12). Serum cholesterol and lipid profiles after FPLC were measured as previously described (Raspé et al., J. Lipid Res., 1999, 40 (11): 2099-2110). Total RNA was extracted from liver specimens as previously described (Chomczynski et al., Anal. Biochem., 1987, 162 (1): 156-9) and quantified by Northern Blot hybridization (Peters, 1997) using human apo A-I and 28S as probes (Peters, J. Biol. Chem., 1997, 272 (43): 27307-12).

FXR = molecular target: T1, FXR (Homo sapiens, UniProt Q96RI1); details: FIG. 4
T1 sequence (Q96RI1 1-472 isoform Q96RI1-2): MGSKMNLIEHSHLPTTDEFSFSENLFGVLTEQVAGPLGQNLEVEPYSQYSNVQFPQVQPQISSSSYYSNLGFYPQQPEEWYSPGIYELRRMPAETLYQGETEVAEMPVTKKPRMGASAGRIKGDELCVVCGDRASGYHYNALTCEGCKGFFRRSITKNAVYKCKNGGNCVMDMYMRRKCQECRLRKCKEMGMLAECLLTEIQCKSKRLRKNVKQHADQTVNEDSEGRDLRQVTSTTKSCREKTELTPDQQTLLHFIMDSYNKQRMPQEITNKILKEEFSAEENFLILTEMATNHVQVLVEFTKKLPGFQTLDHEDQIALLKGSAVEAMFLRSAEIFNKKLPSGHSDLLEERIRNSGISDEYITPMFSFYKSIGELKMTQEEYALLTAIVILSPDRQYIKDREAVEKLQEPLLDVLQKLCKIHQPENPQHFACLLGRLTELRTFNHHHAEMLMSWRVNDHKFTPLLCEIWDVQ

[6] = system: FXR (hFXR) (Homo sapiens); experiment: cell_activity; details: 1 µM GW4064, HepG2
[7] = overexpression of hFXR and mRXRα, CDCA, 36 hours
[8] = overexpression of hFXR, panel A
[9] = hFXR overexpression, 1 μM GW4064, in words

`C[C@H](CCC(=O)O)[C@H]1CC[C@H]2[C@@H]3[C@H](O)C[C@@H]4C[C@H](O)CC[C@]4(C)[C@H]3CC[C@]12C` [CDCA, chenodeoxycholic acid] was tested, and the “apo A-I expression in HepG2 cells” value ([1]; 50 μM) was “considerably reduces”, the “effect on apo A-I expression after actinomycin D preincubation” value ([1]; CDCA 50 μM, 12-h preincubation with actinomycin D (5 g/ml)) was “offset” and the “apo A-I expression in HepG2 cells” value ([1]; increasing concentrations) was “reduce”. For the same compound, the “activity of fragment −40/+91 (minimal promoter) of the apo A-I gene promoter” value (human apo A-I promoter; [7]) was “not”, the “activity of fragment −192/+91 of the apo A-I gene promoter” value (human apo A-I promoter; [7]) was “represses” and the “activity of fragment −254/+91 of the apo A-I gene promoter” value (human apo A-I promoter; [7]) was “represses”. For the same compound, the “activity of fragment −254/+91 with site A mutated (A mut construct)” value (human apo A-I promoter; overexpression of hFXR, CDCA) was “represses”, the “activity of wild type fragment −254/+91 (wt construct)” value (human apo A-I promoter; overexpression of hFXR, CDCA) was “represses” and the “activity of fragment −254/+91 with site C mutated (C mut construct)” value (human apo A-I promoter; [8]) was “transcriptional activation”. The “activity of fragment −254/+91 with sites A and C mutated (AC mut construct)” value (human apo A-I promoter; [8]) was “loss of response”, the “activity of construct C3TK” value ([2]; overexpression of hFXR, CDCA) was “represses” and the “activity of construct A3TK” value ([3]; overexpression of hFXR, CDCA) was “activated”. For the same compound, the “activity of construct TkpGL3” value [4] was “not affected”.

With `CC(C)c1onc(-c2c(Cl)cccc2Cl)c1COc1ccc(/C=C/c2cccc(C(=O)O)c2)c(Cl)c1` [GW4064] the “apo A-I expression in HepG2 cells” value ([1]; GW4064, in words) was “markedly reduces”, the “activity of fragment −254/+91 of the human apo A-I promoter (construct ABC)” value (human apo A-I promoter; [9]) was “represses” and the “activity of construct C3TK” value [2, 9] was “represses”. For the same compound, the “activity of construct A3TK” value ([3]; hFXR overexpression, GW4064, in words) was “activated”.

For `C[C@H](CCC(=O)NCCS(=O)(=O)O)[C@H]1CC[C@H]2[C@@H]3[C@H](O)C[C@@H]4C[C@H](O)CC[C@]4(C)[C@H]3C[C@H](O)[C@]12C` [TCA, taurocholic acid], the “hepatic expression of apo A-I” value [5] was “reduces”, the “plasma concentrations of apo A-I” value [5] was “reduces” and the “plasma concentrations of cholesterol” value [5] was “reduces”. For the same compound, the “apo A-I expression in HepG2 cells” value ([1]; increasing concentrations) was “reduce” and the FXR activation (FXR) was “activate”.

apo A-I promoter -254/+91 showed an activity (% of control luciferase) ([6]; construct ABC, repression) of 56.8.

apo A-I promoter site A wt gave an activity (% of control luciferase) ([6]; A3TK, three copies, activation) of 1120.

For apo A-I promoter site C wt, the activity (% of control luciferase) ([6]; C3TK, three copies, repression) was 61.8.
